This series is described as follows: Solubility Test (amount of methylene chloride to completely dissolve 1 g of compound). The format is physicochemical. The conditions noted are these: room temperature, methylene chloride added dropwise while stirring. As to the method: 1 g of the compound to be tested was added to a test tube at room temperature and methylene chloride was added dropwise while stirring to determine the amount of methylene chloride required to completely dissolve 1 g of the test compound.

The structures appear in SMILES notation.

`CC(c1ccccc1)N1C(=O)c2ccc3c4c(ccc(c24)C1=O)C(=O)N(C(C)c1ccccc1)C3=O` (stereo not shown) [Compound (1)]: the “Amount of methylene chloride required to dissolve 1 g of a compound” value (“Amount of methylene chloride required” below) turned out to be 3.5 g.
Turning to `CCC(c1ccccc1)N1C(=O)c2ccc3c4c(ccc(c24)C1=O)C(=O)N(C(CC)c1ccccc1)C3=O` (stereo not shown) [Compound (2)], the “Amount of methylene chloride required” value stood at 2 g.
As for `CCC(CC)N1C(=O)c2ccc3c4c(ccc(c24)C1=O)C(=O)N(C(CC)CC)C3=O` [Comparative Compound (10a)], the “Amount of methylene chloride required” value worked out at 17.5 g.
Take `CC(C)N1C(=O)c2ccc3c4c(ccc(c24)C1=O)C(=O)N(C(C)C)C3=O` [Comparative Compound (9a)]: the “Amount of methylene chloride required” value came out at 25 g.

Source of the values: patent US7396624B2, “Electrophotographic photoreceptor containing naphthalenetetracarboxylic acid diimide derivatives and electrophotographic imaging apparatus employing the same” (Samsung Electronics Co., Ltd., priority 2004, dated 2008).
